Laboratory results: PubChem BioAssay (NCI)
Several values for one entry are separate records, joined by “and”; a condition that tells them apart may be missing. Identical values can stand only once.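 Each compound was tested at five concentrations against cells in 96-well plates for 48 hours. GI50 is the concentration that inhibits growth by half. TGI denotes the concentration required for complete inhibition of growth.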

Assays:
Assay in all cases: DTP human tumour cell line panel, 48 h
UACC-62 melanoma = tested on: UACC-62 melanoma
UACC-257 melanoma = tested on: UACC-257 melanoma
MALME-3M melanoma = tested on: MALME-3M melanoma
HS 578T breast = tested on: HS 578T breast
SK-OV-3 ovarian = tested on: SK-OV-3 ovarian
COLO 205 colon = tested on: COLO 205 colon
SF-539 CNS = tested on: SF-539 CNS
SK-MEL-5 melanoma = tested on: SK-MEL-5 melanoma
SW-620 colon = tested on: SW-620 colon
RPMI-8226 leukemia = tested on: RPMI-8226 leukemia

Nc1ncc(-c2ccc3ncnc(N4CCc5cc(F)c(Cl)cc54)c3c2)cc1C=O
GI50 (UACC-62 melanoma): 0.574 µM
TGI (UACC-62 melanoma): 3.02 µM
GI50 (UACC-257 melanoma): 1.64 µM
TGI (UACC-257 melanoma): > 100 µM
GI50 (MALME-3M melanoma): 1.13 µM
TGI (MALME-3M melanoma): > 100 µM
GI50 (HS 578T breast): 0.369 µM
TGI (HS 578T breast): 3.06 µM
GI50 (SK-OV-3 ovarian): 1.04 µM
TGI (SK-OV-3 ovarian): 6.42 µM
GI50 (COLO 205 colon): 1.9 µM
TGI (COLO 205 colon): > 100 µM
GI50 (SF-539 CNS): 2.38 µM
TGI (SF-539 CNS): > 100 µM
GI50 (SK-MEL-5 melanoma): 1.87 µM
TGI (SK-MEL-5 melanoma): 4.54 µM

CCN1CCCCCCCCCC(=N/O)/C(=N\O)C1
TGI (UACC-257 melanoma): > 100 µM
TGI (MALME-3M melanoma): > 100 µM
TGI (SW-620 colon): > 100 µM
TGI (SF-539 CNS): > 100 µM
TGI (SK-MEL-5 melanoma): > 100 µM

COc1ccc(C(=O)C(c2ccc(OC)cc2)C2(O)C(=O)Nc3c(Cl)cc(Cl)cc32)cc1 (centres undefined)
TGI (RPMI-8226 leukemia): 33.6 µM
TGI (UACC-257 melanoma): 31.7 µM
TGI (MALME-3M melanoma): 29.8 µM
TGI (SW-620 colon): 39.1 µM
TGI (SK-OV-3 ovarian): 90.6 µM
TGI (COLO 205 colon): 74.3 µM
TGI (SK-MEL-5 melanoma): 34.7 µM

Cc1c(C(=O)/C=C/c2ccc([N+](=O)[O-])cc2)[n+](=O)c2ccccc2n1[O-]
TGI (UACC-62 melanoma): > 100 µM
TGI (RPMI-8226 leukemia): > 100 µM
TGI (UACC-257 melanoma): > 100 µM
TGI (MALME-3M melanoma): > 100 µM
TGI (SW-620 colon): > 100 µM
TGI (SK-OV-3 ovarian): > 100 µM
TGI (COLO 205 colon): > 100 µM
TGI (SF-539 CNS): > 100 µM

[CH3][Ge]([CH3])([CH2]CC#N)[S]c1ccccc1
GI50 (UACC-62 melanoma): 13.5 µM
TGI (UACC-62 melanoma): 29.8 µM
GI50 (RPMI-8226 leukemia): 16.2 µM
TGI (RPMI-8226 leukemia): 53.2 µM
GI50 (UACC-257 melanoma): 22.7 µM
TGI (UACC-257 melanoma): 70.7 µM
GI50 (MALME-3M melanoma): 73.7 µM
TGI (MALME-3M melanoma): > 100 µM
GI50 (SW-620 colon): 14.1 µM
TGI (SW-620 colon): 29.4 µM
GI50 (SK-OV-3 ovarian): 21.7 µM
TGI (SK-OV-3 ovarian): 55.9 µM
GI50 (COLO 205 colon): 17.5 µM
TGI (COLO 205 colon): 52.4 µM
GI50 (SF-539 CNS): 12.9 µM
TGI (SF-539 CNS): 27.8 µM
GI50 (SK-MEL-5 melanoma): 26 µM
TGI (SK-MEL-5 melanoma): 75.9 µM

O=C1NC(c2cccc3ccccc23)Nc2ccc(Cl)cc21 (centres undefined)
TGI (MALME-3M melanoma): 37.7 µM
TGI (SW-620 colon): 17.2 µM
TGI (COLO 205 colon): 0.0175 µM and 0.0795 µM

C/C(=C\CNc1ncnc2c1ncn2C1CCCCO1)COP(=O)(O)O (centres undefined)
TGI (UACC-62 melanoma): > 100 µM
TGI (RPMI-8226 leukemia): > 100 µM
TGI (UACC-257 melanoma): > 100 µM
TGI (MALME-3M melanoma): > 100 µM
TGI (SW-620 colon): > 100 µM
TGI (SK-OV-3 ovarian): > 100 µM
TGI (COLO 205 colon): > 100 µM
TGI (SF-539 CNS): > 100 µM
TGI (SK-MEL-5 melanoma): > 100 µM

Cc1c(Br)c(Br)c2c3c1nc(N1CCNCC1)n3CCC2
GI50 (UACC-62 melanoma): 1.62 µM
TGI (UACC-62 melanoma): 3.08 µM
GI50 (UACC-257 melanoma): 2.13 µM
TGI (UACC-257 melanoma): 4.2 µM
GI50 (MALME-3M melanoma): 1.85 µM
TGI (MALME-3M melanoma): 3.41 µM
GI50 (SW-620 colon): 1.55 µM
TGI (SW-620 colon): 3.09 µM
GI50 (HS 578T breast): 2.45 µM
TGI (HS 578T breast): 6.5 µM
GI50 (SK-OV-3 ovarian): 3.59 µM
TGI (SK-OV-3 ovarian): 13.1 µM
GI50 (COLO 205 colon): 1.86 µM
TGI (COLO 205 colon): 3.63 µM
GI50 (SF-539 CNS): 1.64 µM
TGI (SF-539 CNS): 3.09 µM
GI50 (SK-MEL-5 melanoma): 1.89 µM
TGI (SK-MEL-5 melanoma): 3.42 µM

c1ccc(C2=Nc3ccccc3N3CNN=C23)cc1
GI50 (UACC-62 melanoma): > 100 µM
TGI (UACC-62 melanoma): > 100 µM
GI50 (RPMI-8226 leukemia): 31.6 µM
TGI (RPMI-8226 leukemia): > 100 µM
GI50 (UACC-257 melanoma): > 100 µM
TGI (UACC-257 melanoma): > 100 µM
GI50 (MALME-3M melanoma): > 100 µM
TGI (MALME-3M melanoma): > 100 µM
GI50 (SW-620 colon): > 100 µM
TGI (SW-620 colon): > 100 µM
GI50 (HS 578T breast): 81.8 µM
TGI (HS 578T breast): > 100 µM
GI50 (SK-OV-3 ovarian): > 100 µM
TGI (SK-OV-3 ovarian): > 100 µM
GI50 (COLO 205 colon): > 100 µM
TGI (COLO 205 colon): > 100 µM
GI50 (SK-MEL-5 melanoma): 63.6 µM
TGI (SK-MEL-5 melanoma): > 100 µM

NNC(=O)N/N=C(/CC1(O)C(=O)Nc2ccc(Br)cc21)c1ccccc1 (centres undefined)
TGI (UACC-62 melanoma): 50.9 µM
TGI (RPMI-8226 leukemia): > 100 µM
TGI (UACC-257 melanoma): > 100 µM
TGI (MALME-3M melanoma): > 100 µM
TGI (SW-620 colon): > 100 µM
TGI (SK-OV-3 ovarian): > 100 µM
TGI (SF-539 CNS): > 100 µM
